For assay [1], the system named is Rattus norvegicus. Briefly: Anti-inflammatory activity against LPS-induced paw edema in Sprague-Dawley rat assessed as inhibition of paw edema. It is filed as functional.
In assay [2] the test system is Rattus norvegicus. Briefly: Anti-inflammatory activity against carrageenan-induced paw edema in Wistar rat assessed as reduction in paw edema at 100 mg/kg, po measured after 3 hrs relative to control. On the set-up: scale not given: the % may be the effect or the level left. Format: functional. (The carrageenan paw model is a standard test of acute inflammation.)
The subject of assay [3] is Rattus norvegicus. Briefly: Anti-inflammatory activity against carrageenan-induced paw edema in Wistar rat assessed as reduction in paw edema at 100 mg/kg, po measured after 1 hrs relative to control. It is filed as functional. On the set-up: scale not given: the % may be the effect or the level left.
The subject of assay [4] is Mus musculus. Briefly: Anti-inflammatory activity against xylene-induced ear edema Swiss mouse model assessed as inhibition of ear edema at 0.25 ug/ml, po measured after 6 hrs relative to control. On the set-up: scale not given: the % may be the effect or the level left. Particulars: dose 0.25 µg/ml. It is filed as functional.
For assay [5], the system named is Neutrophil. Briefly: Inhibition of fMLF/CB-induced human Neutrophil activation assessed as reduction in elastase release at 10 uM relative to control. It is filed as functional. On the set-up: scale not given: the % may be the effect or the level left.
Assay [6] relates to Mus musculus. Briefly: Anti-inflammatory activity against xylene-induced ear edema Swiss mouse model assessed as inhibition of ear edema at 0.025 ug/ml, po measured after 6 hrs relative to control. Format: functional. On the set-up: scale not given: the % may be the effect or the level left. Particulars: dose 0.025 µg/ml.
For assay [7], the target named is T1, Neutrophil elastase (Homo sapiens, UniProt P08246).
T1 sequence (P08246 whole entry): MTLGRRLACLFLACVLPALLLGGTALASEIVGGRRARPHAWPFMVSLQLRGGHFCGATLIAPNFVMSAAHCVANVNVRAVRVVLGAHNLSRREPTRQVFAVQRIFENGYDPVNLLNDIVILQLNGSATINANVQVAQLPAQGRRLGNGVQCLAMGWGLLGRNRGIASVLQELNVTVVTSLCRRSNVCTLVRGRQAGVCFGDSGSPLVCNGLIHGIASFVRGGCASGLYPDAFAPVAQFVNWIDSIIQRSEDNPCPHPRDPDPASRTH
Briefly: Inhibition of human Neutrophil elastase. Format: cell-based.

A short description of assay [8]: Anti-inflammatory activity in carrageenan-induced human PBMC cells assessed as inhibition of IL-beta leakage at 10 uM measured for 24 hrs relative to control. On the set-up: scale not given: the % may be the effect or the level left. Format: functional.
Assay [9] deals with Peritoneal macrophage. Briefly: Antiinflammatory activity in mouse peritoneal macrophages assessed as fold reduction in LPS-induced TNFalpha level at 20 uM incubated for 4 hrs by ELISA method. It is filed as functional. (In general: In an ELISA, binding on a coated surface is turned into a signal by an enzyme label.)
The test system of assay [10] is RAW264.7. Briefly: Anti-inflammatory activity in mouse RAW264.7 cells assessed as inhibition of LPS-induced iNOS mRNA expression. Format: functional, cell-based.
In assay [11] the test system is BMDM. Briefly: Antiinflammatory activity in LPS-stimulated mouse BMDM cells assessed as inhibition of NF-kappaB signalling pathway incubated for 3 hrs by Western blot analysis. Format: functional, cell-based. For orientation: A western blot detects proteins with antibodies after separation by electrophoresis.
Assay [12] deals with BV-2. Briefly: Antineuroinflammatory activity in LPS-induced mouse BV-2 cells assessed as inhibition of NO production pre-incubated for 2 hr followed by LPS-stimulation measured for 24 hrs by Griess reagent based analysis. It is filed as functional, cell-based.
Assay [13] concerns Neutrophil. Briefly: Inhibition of fMLF/CB-induced human Neutrophil activation assessed as reduction in superoxide anion at 10 uM relative to control. Format: functional. On the set-up: scale not given: the % may be the effect or the level left.
The test system of assay [14] is Mus musculus. Briefly: Anti-inflammatory activity in mouse model of xylene-induced auricle edema assessed as inhibition of ear swelling at 200 mg/kg, IG pre-treated for 1 hr followed by xylene addition and measured after 1 hr relative to control. Format: functional. On the set-up: scale not given: the % may be the effect or the level left.
In assay [15] the test system is Neutrophil. Briefly: Inhibition of fMLF/CB-induced human Neutrophil activation assessed as reduction in superoxide anion. It is filed as functional, cell-based.
The subject of assay [16] is Neutrophil. Briefly: Inhibition of fMLF/CB-induced human Neutrophil activation assessed as reduction in elastase release. It is filed as functional, cell-based.
Assay [17] addresses Transient receptor potential cation channel subfamily V member 1 (Homo sapiens) (UniProt Q8NER1). Briefly: Inhibition of TRPV-1 (unknown origin) at 12.5 uM relative to control.
In assay [18] the test system is Neutrophil. Briefly: Inhibition of fMLF/CB-induced human Neutrophil activation assessed as reduction in elastase release using MeO-Suc-Ala-Ala-Pro-Val-pnitroanilide as substrate pre-incubated for 2 mins followed by fMLF/CB-stimulation and measured for 5 mins. Format: functional, cell-based.
The subject of assay [19] is HaCaT. Briefly: Anti-inflammatory activity in LPS-stimulated human HaCaT cells assessed as reduction of IL-6 expression at 12.5 uM. It is filed as functional. On the set-up: scale not given: the % may be the effect or the level left.
The subject of assay [20] is Mus musculus. Briefly: Antiinflammatory activity against TPA-induced mouse ear edema model assessed as reduction in NO production measured after 4 hrs. It is filed as functional, organism-based.
The test system of assay [21] is Peritoneal macrophage. Briefly: Anti-inflammatory activity against LPS-stimulated mouse peritoneal macrophage assessed as reduction in nitric oxide production. Format: functional, cell-based.
Assay [22] relates to BV-2. Briefly: Anti-inflammatory activity in mouse BV-2 cells assessed as reduction in LPS-induced NO production pretreated for 1 hr followed by LPS-stimulation and measured after 18 hrs by 2,3-diaminonaphthalene reagent based fluorescence analysis. Format: functional, cell-based.
The subject of assay [23] is RAW264.7. Briefly: Anti-inflammatory activity in LPS-stimulated mouse RAW264.7 cells assessed as inhibition of NO production incubated for 24 hrs by Griess reagent based assay. It is filed as functional, cell-based. Particulars: RAW264.7, 24 h.
The subject of assay [24] is RAW264.7. Briefly: Anti-inflammatory activity in mouse RAW264.7 cells assessed as reduction in LPS-induced NO production by ELISA analysis. It is filed as functional, cell-based.
Assay [25] has as its system THP-1. Briefly: Anti-inflammatory activity in human THP-1 cells assessed as inhibition of LPS-stimulated NO production by ELISA analysis. Format: functional, cell-based.
Assay [26] concerns BV-2. Briefly: Anti-inflammatory activity in mouse BV-2 cells assessed as reduction in LPS-induced NO production. Format: functional, cell-based.

≈ marks a conversion by molar mass, not a printed value.

Transient receptor potential cation channel subfamily V member 1 (Homo sapiens), sequence (Q8NER1 whole entry): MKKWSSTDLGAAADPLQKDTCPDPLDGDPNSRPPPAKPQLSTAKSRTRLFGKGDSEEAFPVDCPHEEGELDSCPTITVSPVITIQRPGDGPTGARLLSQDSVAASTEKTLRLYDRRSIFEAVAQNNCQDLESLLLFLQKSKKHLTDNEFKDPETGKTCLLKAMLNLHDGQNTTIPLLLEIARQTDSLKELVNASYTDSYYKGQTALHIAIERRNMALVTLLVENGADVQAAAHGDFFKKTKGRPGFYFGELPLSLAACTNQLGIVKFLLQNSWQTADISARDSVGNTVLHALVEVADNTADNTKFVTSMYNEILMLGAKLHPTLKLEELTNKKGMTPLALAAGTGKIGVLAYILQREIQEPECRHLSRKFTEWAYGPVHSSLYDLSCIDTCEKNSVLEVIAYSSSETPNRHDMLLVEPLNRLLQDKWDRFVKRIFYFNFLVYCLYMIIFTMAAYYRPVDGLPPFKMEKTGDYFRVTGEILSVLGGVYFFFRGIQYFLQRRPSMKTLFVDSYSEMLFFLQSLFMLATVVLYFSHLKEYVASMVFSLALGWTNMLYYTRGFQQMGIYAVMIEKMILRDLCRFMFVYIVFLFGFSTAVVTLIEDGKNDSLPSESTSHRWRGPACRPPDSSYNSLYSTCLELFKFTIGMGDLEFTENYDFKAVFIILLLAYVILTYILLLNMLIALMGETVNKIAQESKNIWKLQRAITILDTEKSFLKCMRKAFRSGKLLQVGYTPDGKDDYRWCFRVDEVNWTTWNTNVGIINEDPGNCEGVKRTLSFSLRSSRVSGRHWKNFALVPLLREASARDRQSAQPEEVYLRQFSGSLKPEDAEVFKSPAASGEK

With `COc1ccc(-c2cc(=O)c3c(O)c(OC)c(O)cc3o2)cc1OC` [EUPATILIN], the ID50 in assay [1] is 0.28 umol/cm2.

For orientation: IC50 means the concentration needed to halve the response being measured. Consider `COc1ccc(-c2cc(=O)c3c(O)c(OC)c(OC)c(OC)c3o2)cc1OC` [5-DEMETHYLNOBILETIN], for which the Activity in [2] is listed as 47%; in [3], 65%; in assay [4] it was 41%; in assay [5] it was 89%; in [6], 79%; in assay [8], 24.8%. In [7], this compound registered an IC50 of 0.35 µM.

`CC(C)=CCc1c2c(c3occ(-c4ccc(O)cc4)c(=O)c3c1O)C=CC(C)(C)O2` [OSAJIN]: in [9], the “fold change (FC)” value came to 1.8. Besides, the IC50 in assay [10] came out at 7.2 mg/L (≈ 17.8 µM); in [11], 12 mg/L (≈ 29.7 µM).

On to `CC(C)(O)[C@@H]1Cc2cc(/C=C/C(=O)c3ccc4c(c3O)C[C@H](C(C)(C)O)O4)ccc2O1`, for which the IC50 in assay [12] was 12.4 µM.

Turning to `COc1cc(O)c2c(=O)c(-c3ccc(O)c(OC)c3)coc2c1`, the Activity in [13] is on record as 49%.

For `CC(=O)Oc1ccccc1C(=O)O` [ASPIRIN], the Activity in assay [14] came out at 41.07%.

On to `O=c1cc(N2CCOCC2)oc2c(-c3ccccc3)cccc12` [LY-294002], for which the Activity in assay [13] amounted to 96.5%. Besides, the IC50 in assay [15] was determined as 1.1 µM; in assay [16], 3.2 µM.

`CC(C)=CCc1c2c(c3occ(-c4ccc(O)c(O)c4)c(=O)c3c1O)C=CC(C)(C)O2` [POMIFERIN]: in [9], the “fold change (FC)” value stood at 1.5. Besides, the values for the half-maximal inhibitory concentration (IC50) in assay [10] and in [11] were 6.4 mg/L (≈ 15.2 µM) and 13 mg/L (≈ 30.9 µM), respectively.

As usually defined, the inhibition is the change of the read-out against control, counted positive when it falls. In [17], `COc1cc(O)c2c(=O)cc(-c3ccc(O)c(O)c3)oc2c1` showed an inhibition of 33%. Moreover, the IC50 in assay [18] is no more than 15.2 µM. Also, the Activity in assay [19] is recorded as 52%.

Consider `CC(C)=CCC/C(C)=C/Cc1c(O)cc2oc(-c3ccc(O)cc3)cc(=O)c2c1O`, for which, in assay [20], the IC50 was determined as 4.1 mg/L (≈ 10.1 µM).

`COc1ccc(-c2coc3cc(O)c(OC)c(O)c3c2=O)cc1` [IRISOLIDONE]: in assay [21], the half-maximal inhibitory concentration (IC50) came out at 23.6 µM.

For `COc1ccc2c(c1)c(CC(=O)O)c(C)n2C(=O)c1ccc(Cl)cc1` [INDOMETHACIN], the IC50 is 55.4 µM in assay [22]; 8.5 µM in assay [23]; 17.6 µM in assay [24]; 148 µM in [21]; 19.4 µM in assay [25]; 15.2 µM in assay [26].
